Test results taken from US20240132431A1, “METHOD FOR ALKYLATING ACIDIC FUNCTIONAL GROUP” (Chugai Seiyaku Kabushiki Kaisha, priority 2021, published 2024).

Target: T1, Bcl-2 protein (Recombinant Human Bcl-2 Protein) (Homo sapiens, UniProt P10415)
T1 construct: purchased Novus NBP2-34889
Test: Binding evaluation of mixture library compounds to Bcl-2 using AS-MS (affinity selection mass spectrometry)
Procedure, shortened: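 Pooled library of ~1200 compounds ([…] each, final) incubated with recombinant human Bcl-2 (20 μM final) in Tris-HCl pH 7.4, NaCl, Tween-20, DTT buffer, dark, 23° C., 1 h. Bound fraction recovered by SEC spin column, organic extraction, reversed-phase LC/MS. ASMS Ratio (%) = (A−C)/B×100 versus protein-free standard and SEC blank.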

T1 sequence (P10415 whole entry): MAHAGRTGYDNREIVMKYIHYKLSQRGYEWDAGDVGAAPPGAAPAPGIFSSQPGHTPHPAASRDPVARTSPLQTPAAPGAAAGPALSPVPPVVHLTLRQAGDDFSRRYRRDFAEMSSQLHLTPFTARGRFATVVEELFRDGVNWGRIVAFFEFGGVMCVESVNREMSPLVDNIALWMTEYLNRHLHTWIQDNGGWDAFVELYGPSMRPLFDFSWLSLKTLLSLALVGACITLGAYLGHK

## CCOc1cncc(-c2cc(CN3CCN(c4ccc(C(=O)NS(=O)(=O)c5ccc(NCCSc6ccccc6)c(C(F)(F)F)c5)cc4)CC3)cc(OCC)c2)c1 [B2R056-01, 4-[4-[[3-Ethoxy-5-(5-ethoxypyridin-3-yl)phenyl]methyl]piperazin-1-yl]-N-[4-(2-phenylsulfanylethylamino)-3-(trifluoromethyl)phenyl]sulfonylbenzamide]
N = 2
  ASMS ratio (%): −63.9%

## CCOc1cccc(-c2cc(CN3CCN(c4ccc(C(=O)NS(=O)(=O)c5ccc(NCCSc6ccccc6)c(C(F)(F)F)c5)cc4)CC3)cc(OC(C)C)c2)c1 [B2R057-01, 4-[4-[[3-(3-Ethoxyphenyl)-5-propan-2-yloxyphenyl]methyl]piperazin-1-yl]-N-[4-(2-phenylsulfanylethylamino)-3-(trifluoromethyl)phenyl]sulfonylbenzamide]
N = 1
  ASMS ratio (%): 5.7%
N = 2
  ASMS ratio (%): −5.1%

## CCOc1cncc(-c2cc(CN3CCN(c4ccc(C(=O)NS(=O)(=O)c5ccc(NCCSc6ccccc6)c(C(F)(F)F)c5)cc4)CC3)cc(OC(C)C)c2)c1 [B2R058-01, 4-[4-[[3-(5-Ethoxypyridin-3-yl)-5-propan-2-yloxyphenyl]methyl]piperazin-1-yl]-N-[4-(2-phenylsulfanylethylamino)-3-(trifluoromethyl)phenyl]sulfonylbenzamide]
N = 1
  ASMS ratio (%): 13.0%
N = 2
  ASMS ratio (%): 4.8%

## CCOc1cccc(-c2cc(OC)c(CN3CCN(c4ccc(C(=O)NS(=O)(=O)c5ccc(NCCSc6ccccc6)c(C(F)(F)F)c5)cc4)CC3)c(OC)c2)c1 [B2R059-01, 4-[4-[[4-(3-Ethoxyphenyl)-2,6-dimethoxyphenyl]methyl]piperazin-1-yl]-N-[4-(2-phenylsulfanylethylamino)-3-(trifluoromethyl)phenyl]sulfonylbenzamide]
N = 1
  ASMS ratio (%): 0.0%
N = 2
  ASMS ratio (%): 0.0%

## CCOc1cncc(-c2cc(OC)c(CN3CCN(c4ccc(C(=O)NS(=O)(=O)c5ccc(NCCSc6ccccc6)c(C(F)(F)F)c5)cc4)CC3)c(OC)c2)c1 [B2R060-01, 4-[4-[[4-(5-Ethoxypyridin-3-yl)-2,6-dimethoxyphenyl]methyl]piperazin-1-yl]-N-[4-(2-phenylsulfanylethylamino)-3-(trifluoromethyl)phenyl]sulfonylbenzamide]
N = 1
  ASMS ratio (%): 3.9%
N = 2
  ASMS ratio (%): 0.0%

## CCOc1cccc(-c2cc(CN3CCN(c4ccc(C(=O)NS(=O)(=O)c5ccc(NCCSc6ccccc6)c(C(F)(F)F)c5)cc4)CC3)cc(C(F)(F)F)c2)c1 [B2R061-01, 4-[4-[[3-(3-Ethoxyphenyl)-5-(trifluoromethyl)phenyl]methyl]piperazin-1-yl]-N-[4-(2-phenylsulfanylethylamino)-3-(trifluoromethyl)phenyl]sulfonylbenzamide]
N = 1
  ASMS ratio (%): 9.1%
N = 2
  ASMS ratio (%): −6.0%

## CCOc1cncc(-c2cc(CN3CCN(c4ccc(C(=O)NS(=O)(=O)c5ccc(NCCSc6ccccc6)c(C(F)(F)F)c5)cc4)CC3)cc(C(F)(F)F)c2)c1 [B2R062-01, 4-[4-[[3-(5-Ethoxypyridin-3-yl)-5-(trifluoromethyl)phenyl]methyl]piperazin-1-yl]-N-[4-(2-phenylsulfanylethylamino)-3-(trifluoromethyl)phenyl]sulfonylbenzamide]
N = 1
  ASMS ratio (%): 0.0%
N = 2
  ASMS ratio (%): 0.0%

## CCOc1cccc(-c2cc(CN3CCN(c4ccc(C(=O)NS(=O)(=O)c5ccc(NCCSc6ccccc6)c(C(F)(F)F)c5)cc4)CC3)cc(OC(F)(F)F)c2)c1 [B2R063-01, 4-[4-[[3-(3-Ethoxyphenyl)-5-(trifluoromethoxy)phenyl]methyl]piperazin-1-yl]-N-[4-(2-phenylsulfanylethylamino)-3-(trifluoromethyl)phenyl]sulfonylbenzamide]
N = 1
  ASMS ratio (%): 8.2%
N = 2
  ASMS ratio (%): 4.6%

## CCOc1cncc(-c2cc(CN3CCN(c4ccc(C(=O)NS(=O)(=O)c5ccc(NCCSc6ccccc6)c(C(F)(F)F)c5)cc4)CC3)cc(OC(F)(F)F)c2)c1 [B2R064-01, 4-[4-[[3-(5-Ethoxypyridin-3-yl)-5-(trifluoromethoxy)phenyl]methyl]piperazin-1-yl]-N-[4-(2-phenylsulfanylethylamino)-3-(trifluoromethyl)phenyl]sulfonylbenzamide]
N = 1
  ASMS ratio (%): 4.2%
N = 2
  ASMS ratio (%): −7.4%

## CCOc1cccc(-c2ccc(CN3CCN(c4ccc(C(=O)NS(=O)(=O)c5ccc(NCCSc6ccccc6)c(C(F)(F)F)c5)cc4)CC3)c3ccccc23)c1 [B2R065-01]
N = 1
  ASMS ratio (%): 3.8%
N = 2
  ASMS ratio (%): 0.3%

## CCOc1cncc(-c2ccc(CN3CCN(c4ccc(C(=O)NS(=O)(=O)c5ccc(NCCSc6ccccc6)c(C(F)(F)F)c5)cc4)CC3)c3ccccc23)c1 [B2R066-01, 4-[4-[[4-(5-Ethoxypyridin-3-yl)naphthalen-1-yl]methyl]piperazin-1-yl]-N-[4-(2-phenylsulfanylethylamino)-3-(trifluoromethyl)phenyl]sulfonylbenzamide]
N = 1
  ASMS ratio (%): 19.8%
N = 2
  ASMS ratio (%): −10.7%

## CCOc1cccc(-c2csc(CN3CCN(c4ccc(C(=O)NS(=O)(=O)c5ccc(NCCSc6ccccc6)c(C(F)(F)F)c5)cc4)CC3)c2)c1 [B2R067-01, 4-[4-[[4-(3-Ethoxyphenyl)thiophen-2-yl]methyl]piperazin-1-yl]-N-[4-(2-phenylsulfanylethylamino)-3-(trifluoromethyl)phenyl]sulfonylbenzamide]
N = 1
  ASMS ratio (%): 8.0%
N = 2
  ASMS ratio (%): 0.0%

## CCOc1cncc(-c2csc(CN3CCN(c4ccc(C(=O)NS(=O)(=O)c5ccc(NCCSc6ccccc6)c(C(F)(F)F)c5)cc4)CC3)c2)c1 [B2R068-01, 4-[4-[[4-(5-Ethoxypyridin-3-yl)thiophen-2-yl]methyl]piperazin-1-yl]-N-[4-(2-phenylsulfanylethylamino)-3-(trifluoromethyl)phenyl]sulfonylbenzamide]
N = 1
  ASMS ratio (%): 0.0%
N = 2
  ASMS ratio (%): 0.0%

## CCOc1cccc(C#Cc2ccccc2CN2CCN(c3ccc(C(=O)NS(=O)(=O)c4ccc(NCCSc5ccccc5)c(C(F)(F)F)c4)cc3)CC2)c1 [B2R069-01, 4-[4-[[2-[2-(3-Ethoxyphenyl)ethynyl]phenyl]methyl]piperazin-1-yl]-N-[4-(2-phenylsulfanylethylamino)-3-(trifluoromethyl)phenyl]sulfonylbenzamide]
N = 1
  ASMS ratio (%): 12.3%
N = 2
  ASMS ratio (%): 18.5%

## CCOc1cccc(-c2ccccc2CN2CCN(c3ccc(C(=O)NS(=O)(=O)c4ccc(NCCSc5ccccc5)c(C(F)(F)F)c4)nn3)CC2)c1 [B2R071-01, 6-[4-[[2-(3-Ethoxyphenyl)phenyl]methyl]piperazin-1-yl]-N-[4-(2-phenylsulfanylethylamino)-3-(trifluoromethyl)phenyl]sulfonylpyridazine-3-carboxamide]
N = 1
  ASMS ratio (%): 14.3%
N = 2
  ASMS ratio (%): −9.0%
